The data set can be described thus: solvent given as SMILES.

`c1ccc(N(c2ccccc2)c2ccc(N(c3ccccc3)c3ccc4ccc5c(N(c6ccccc6)c6ccc(N(c7ccccc7)c7ccccc7)cc6)ccc6ccc3c4c65)cc2)cc1` showed an absorption maximum (in ClCCl) of 438 nm.

Where the note is “in ClC(Cl)Cl”, `CCCCCCCCn1c(=O)c2cc3c(C#Cc4ccc(N(c5ccccc5)c5ccccc5)cc4)c4cc5c(=O)n(CCCCCCCC)c(=O)c5cc4c(C#Cc4ccc(N(c5ccccc5)c5ccccc5)cc4)c3cc2c1=O` yielded an absorption maximum of 582 nm.

Take `Cc1ccc2c(c1)c(=O)c1ccccc1n2CCCCCC(=O)O`: the absorption maximum (in O) stood at 419 nm.

In turn, `COC(=O)/C=C/C1=CC2=C(c3c(C)cc(C)cc3C)c3cc(/C=C/C(=O)OC)cn3[B-](F)(F)[N+]2=C1` yielded an absorption maximum (in ClCCl) of 577 nm.

For `Cc1cc(O)c(C(=O)/C=C/c2cccc(O)c2)c(=O)o1`, the absorption maximum is, setting by setting: (in CC#N) 367 nm; (in ClCCl) 374 nm.

Where the note is “in Cc1ccccc1”, `c1ccc([B-]2(c3ccccc3)Oc3ccc4ccccc4c3-c3c4ccccc4cc[n+]32)cc1` gave an absorption maximum of 427 nm.

As to `ClP1(Cl)=NP(Cl)(Cl)=NP(Cl)(Oc2ccc3ccc4cccc5ccc2c3c45)=N1` (stereo not given), the absorption maximum (in ClCCl) is reported as 343 nm.

In the case of `Cc1ccc(-c2nc(-c3cccc(C#N)c3)[nH]c2-c2ccc(C)cc2)cc1`, under “in CO”, the absorption maximum amounted to 315 nm.

In turn, `CC1=c2c3c4cccc5cccc(c=3c(C)[n+]2[B-](F)(F)n2c(C)c3cc6c(-c7ccccc7)c7c(c(-c8ccccc8)c6cc3c21)-c1cccc2cccc-7c12)c54` gave an absorption maximum (in ClCCl) of 658 nm.

With `COc1ccccc1C1=C2C(C)=CC(C)=[N+]2[B-](F)(F)n2c(C)cc(C)c21`, the absorption maximum runs as follows: (in C1CCOC1) 503 nm; (in CC#N) 499 nm; (in CC(=O)C(C)(C)C) 502 nm; (in CC(C)=O) 501 nm; (in CCCCCC) 504 nm; (in CCOC(C)=O) 502 nm. Also, the absorption maximum (in CO) turned out to be 500 nm.

For the compound `CC1(C)c2ccccc2N(c2cccc(S(=O)(=O)c3cccc(N4c5ccccc5C(C)(C)c5ccccc54)c3)c2)c2ccccc21`, the absorption maximum runs as follows: (in C1CCOC1) 281 nm; (in Cc1ccccc1) 301 nm; (in ClC(Cl)Cl) 287 nm.

`Nc1ccc2c(c1)Cc1ccccc1-2` yielded an absorption maximum (in C1CCCCC1) of 318 nm; an absorption maximum (in C1COCCO1) of 322 nm; an absorption maximum (in CC#N) of 325 nm; an absorption maximum (in CC(C)O) of 317 nm; an absorption maximum (in CCCCCC) of 318 nm; an absorption maximum (in CCCCCCC) of 317 nm. For the same compound, the absorption maximum came out at 317 nm (in CCO); 325 nm (in CCOC(C)=O); 318 nm (in CCOCC); 317 nm (in CO); 319 nm (in ClCCl); 315 nm (in O).

As for `c1ccc(-c2nc(-c3c4ccccc4cc4ccccc34)n3ccccc23)cc1`, the absorption maximum runs as follows: (in C1CCCCC1) 375 nm; (in CC#N) 375 nm; (in CO) 366 nm; (in ClCCl) 382 nm; (in O) 375 nm.

For the compound `COCCOCCOCCOCCOc1ccc(OCCOCCOCCOCCOC)c(C=O)c1`, the absorption maximum by setting is: (in CC(C)(C)O) 350 nm; (in CC(C)CO) 350 nm; (in CC(C)O) 349 nm; (in CCCCO) 349 nm; (in CCCO) 349 nm; (in CCO) 349 nm. For the same compound, the absorption maximum amounted to 350 nm (in CN(C)C=O); 349 nm (in CNC=O); 349 nm (in CO); 352 nm (in NC=O); 351 nm (in O).

In turn, `Nc1cc([NH3+])cc(-c2nc3ccccc3s2)c1` had an absorption maximum (in O) of 300 nm.

For the setting “in CCO”, `COc1cc(F)c(C(=O)c2cc(F)c(OC)cc2F)cc1F` gave an absorption maximum of 301 nm.

In turn, `CC(C)(C)c1ccc2c(c1)c1cc(C(C)(C)C)ccc1n2-c1ccc(-c2ccc3c(c2)C(=O)c2ccc(-c4ccc(-n5c6ccc(C(C)(C)C)cc6c6cc(C(C)(C)C)ccc65)cc4)cc2C3=O)cc1` yielded an absorption maximum (in Cc1ccccc1) of 426 nm.

Take `C(=C\c1ccc(-c2nnc(-c3ccc(/C=C/c4ccc(-c5nc(-c6ccccc6)c(-c6ccccc6)[nH]5)cc4)cc3)o2)cc1)/c1ccc(-c2nc(-c3ccccc3)c(-c3ccccc3)[nH]2)cc1`: the absorption maximum is on record as 396 nm (in C1CCOC1), 391 nm (in CC#N), 397 nm (in CN(C)C=O) and 397 nm (in Cc1ccccc1).

For `CC1=C(c2cccs2)C(C)=[N+]2C1=C(c1ccccc1)c1c(C)c(-c3cccs3)c(C)n1[B-]2(F)F`, the absorption maximum runs as follows: (in CO) 521 nm; (in Cc1ccccc1) 530 nm; (in ClCCl) 527 nm.

On to `Cc1cc(O)c(C(=O)/C=C/c2ccc([N+](=O)[O-])cc2)c(=O)o1`, for which the absorption maximum runs as follows: (in CC#N) 358 nm; (in ClCCl) 361 nm.

For the compound `CCOC(=O)C1=C(N)n2c(=O)c3ccccc3c(=O)n2C1c1ccccc1` (stereo not given), the absorption maximum (in CS(C)=O) came to 364 nm.

Compound `COc1ccc(-c2cnc3cccc(-c4ccc(C(C)=O)cc4)n23)cc1` came in with an absorption maximum (in ClCCl) of 366 nm.

In turn, `CC(C)(C)c1ccc(-c2c(-c3cccc(-n4c5ccccc5c5ccccc54)c3)c(C#N)c(-c3cccc(-n4c5ccccc5c5ccccc54)c3)c(-c3ccc(C(C)(C)C)cc3)c2-c2ccc(C(C)(C)C)cc2)cc1` displayed an absorption maximum (in C1CCOC1) of 360 nm.

With `c1ccc(-c2nc(-c3ccc(-c4ccc(-c5nc(-c6ccccc6)c(-c6ccccc6)o5)cc4)cc3)oc2-c2ccccc2)cc1`, the absorption maximum (in C1COCCO1) is 353 nm.

Consider `CCOC(=O)c1sc(SC)c2c(=O)[nH]nnc12`, for which the absorption maximum by setting is: (in C1CCOC1) 380.5 nm; (in CC#N) 381 nm; (in CCO) 385 nm; (in CN(C)C=O) 389 nm; (in CO) 384.5 nm; (in CS(C)=O) 387.5 nm.

In the case of `c1ccc(-n2nc(-c3ccc(N4c5ccccc5Sc5ccccc54)cc3)nc2-c2ccccn2)cc1`, the absorption maximum (in ClCCl) amounted to 329 nm.

For the setting “in CCOC(C)=O”, `CCn1ncc2c3c(C#N)c4c5ccccc5n(C)c4nc3ccc21` came in with an absorption maximum of 383 nm.

For the compound `O=Cc1ccc2nc(C#Cc3ccc(N(c4ccc(C#Cc5nc6ccc(C=O)cc6s5)cc4)c4ccc(C#Cc5nc6ccc(C=O)cc6s5)cc4)cc3)sc2c1`, the absorption maximum (in Cc1ccccc1) is 421 nm.

`Clc1ccc(-c2nc3ccccc3n2-c2ccccc2)cc1` came in with an absorption maximum (in CC#N) of 295 nm.

Where the note is “in CCO”, `Nc1ccc2nc3c4ccccc4c(=[NH2+])cc-3oc2c1` displayed an absorption maximum of 600 nm.

Regarding `CCN(CC)c1ccc(-c2ccc(-c3nc(N4CCOCC4)c4ccccc4n3)s2)cc1`, the absorption maximum is, setting by setting: (in CC#N) 401 nm; (in Cc1ccccc1) 405 nm.

With `CC(C)(C)c1cc(-c2ccc(-c3cccs3)s2)c2c(c1)c1cc(C(C)(C)C)cc(-c3ccc(-c4cccs4)s3)c1n2-c1ccc(-c2cccs2)s1`, the absorption maximum (in ClCCl) came out at 340 nm.

In turn, `CCCCCCCCCCOC(=O)c1ccc2c3ccc(C(=O)OCCCCCCCCCC)c4c(C(=O)OCCCCCCCCCC)cc5[nH]c6cc(C(=O)OCCCCCCCCCC)c1c2c6c5c43` yielded an absorption maximum (in C1CCOC1) of 410 nm.

With `[NH3+]c1cc([NH3+])cc(-c2nc3ccccc3s2)c1`, for the setting “in O”, the absorption maximum amounted to 315 nm.

As to `CC(C)(C)c1ccc(C2=C(c3ccc(N4c5ccccc5C(C)(C)c5ccccc54)cc3)S(=O)(=O)c3c2sc(-c2ccc(N4c5ccccc5C(C)(C)c5ccccc54)cc2)c3-c2ccc(C(C)(C)C)cc2)cc1`, the absorption maximum (in C1CCOC1) was determined as 403 nm.

As to `N#Cc1cnc(-c2c3ccccc3c(-c3ncc(C#N)cn3)c3ccccc23)nc1`, the absorption maximum by setting is: (in CCO) 391 nm; (in ClCCl) 394 nm.

In turn, `COC(=O)c1c(NC(C)(C)C)oc(-c2ccccc2)c1C(=O)OC` had an absorption maximum (in CC#N) of 334 nm.

Take `CCOC(=O)CN1C(=O)C2=C(c3ccc(C#N)cc3)N(CC(=O)OCC)C(=O)C2=C1c1ccc(C#N)cc1`: the absorption maximum stood at 473 nm (in CC#N), 480 nm (in CS(C)=O) and 482 nm (in Cc1ccccc1).

Regarding `COc1ccc(/C=C/C2=NC(=C\c3ccncc3)/C(=O)N2C)cc1`, the absorption maximum is 422 nm (in C1COCCO1); 428 nm (in CC#N); 433 nm (in CCO); 423 nm (in CCOC(C)=O); 425 nm (in O).

Take `CCCCN(CCCC)c1ccc(C#Cc2cc(C#Cc3ccc([N+](=O)[O-])cc3)c(C#Cc3ccc(N(CCCC)CCCC)cc3)cc2C#Cc2ccc([N+](=O)[O-])cc2)cc1`: the absorption maximum (in ClCCl) stood at 448 nm.

Take `FC(F)(F)c1ccc2c(c1)Nc1ccccc1S2`: the absorption maximum by setting is: (in CC#N) 322 nm; (in CO) 324 nm.

`Cc1cccc2nc3[nH]c(=O)[nH]c(=O)c3nc12`: under “in CC#N”, the absorption maximum came to 380 nm.

With `COc1cc(OC)cc(C2=[O+][B-](F)(F)OC(c3ccccc3)=C2)c1`, the absorption maximum (in ClCCl) is recorded as 369 nm.

For the compound `CCC1(CC)c2cc(C#Cc3cccs3)ccc2-c2c1c1c(c3c2C(CC)(CC)c2cc(C#Cc4cccs4)ccc2-3)C(CC)(CC)c2cc(C#Cc3cccs3)ccc2-1`, the absorption maximum (in C1CCOC1) amounted to 362 nm.

With `COc1ccc(-c2c3ccccc3c3n2[B-](F)(F)[N+]2=Cc4c5ccccc5c(-c5ccc(OC)cc5)n4[B-](F)(F)[N+]2=C3)cc1`, the absorption maximum reads like this: (in CC#N) 561 nm; (in CCCCCC) 573 nm; (in CN(C)C=O) 569 nm; (in Cc1ccccc1) 579 nm; (in ClCCl) 571 nm.

Turning to `c1ccc(-n2c3ccccc3c3cc(-n4ccc5cc(-c6cccc7c6-c6ccccc6C7(c6ccccc6)c6ccccc6)ccc54)ccc32)cc1`, the absorption maximum (in ClCCl) was 325 nm.

`C[Si]1(C)O[Si](C)(C)c2cc3c(-c4ccccc4F)c4cc(Cl)ccc4nc3cc21`: the absorption maximum (in ClCCl) worked out at 380 nm.

The values above are taken from the Deep4Chem optical property database.
